Laboratory results published in patent publication US5010107A, “Method and composition for achieving anticarcinogenic activity” (priority 1989, dated 1991).
Read-outs that look alike come from different tables or passages of the source.

What was measured:
[1] = cited from earlier work
β-glucuronidase = details: cells, blood, cited from earlier work
carcinogenesis = details: higher doses of CGT; cited from earlier work
[2] = test system: 7,12-dimethylbenz(a)anthracene-induced mammary tumorigenesis; details: cited from earlier work
[3] = test system: 7,12-dimethylbenz(a)anthracene-induced mammary tumors; test: DMBA-induced mammary tumor formation in rats fed CGT, HPR or both; assay type: in vivo, female Sprague Dawley rats; details: for Rats with tumors / Total No. tumors: 20 rats
Protocol: They were maintained on the diets for approximately 4 mos., and were examined (palpated) for mammary tumors weekly. […] The retinoid (HPR) was first dissolved in 25 ml of a vehicle consisting of ethanol-tricaprylin-6% α-tocopherol, then thoroughly mixed with powdered rat chow.

[4] = test system: established DMBA-induced mammary tumors; test: Growth of established DMBA-induced mammary tumors; assay type: in vivo, female Sprague Dawley rats; details: 2 mmol/kg diet; within 5 to 10 days
Protocol: (§1) When higher doses (2 mmol/kg diet) of HPR were used, growth arrest was followed within 5 to 10 days by 30% regression of the DMBA-induced mammary tumors. Also, HPR (0.1 uM) inhibited the […] growth of the human breast cancer cell line (MCF-7) to 50% of the control within 7 days.

[5] = test system: established mammary tumors; test: Growth of established mammary tumors in CD8 F1 mice; assay type: in vivo
Protocol: as §1

[6] = test system: cellular cAMP (cyclic AMP) and histone kinases; details: cited from earlier work

In the case of 2,4-di-O-acetyl-D-glucaro-1,4-lactone, the “release of D-glucaro-1,4-lactone (GL) when fed” value (“release of D-glucaro-1,4-lactone” for short) ([1]; in vivo) is given as “slowly release D-glucaro-1,4-lactone (GL)” and the “inhibition of β-glucuronidase” value (β-glucuronidase; urine, intestine and liver) is given as “effective as inhibitors of β-glucuronidase”.
For `O=C([O-])[C@@H](O)[C@@H](O)[C@H](O)[C@@H](O)C(=O)[O-].[Ca+2]` [CGT, calcium glucarate], the “release of D-glucaro-1,4-lactone” value ([1]; fed) is listed as “slowly release D-glucaro-1,4-lactone (GL)”, the “effectiveness against lung, colon and mammary carcinogenesis” value (carcinogenesis) is listed as “effective against lung, colon and mammary carcinogenesis” and the “tumor induction relative to controls” value ([2]; 4% CGT diet, started two weeks after carcinogen, by 28 weeks) is listed as 30%. For the same compound, the “food consumption and weight gain” value ([2]; CGT-supplemented diet vs normal chow diet) was “ate quantities of food and had weight gain identical to those on the normal chow diet”, the “steady-state level of sex hormones” value ([2]; anti-promotional effect of CGT, probable cause) was “reduction in the steady-state level of sex hormones” and the “inhibition of tumor incidence” value ([3]; 1.0% CGT alone) was 20%. For the same compound, the inhibition of tumors/rat ([3]; 1.0% CGT alone) was 9%, the “Tumor Incidence” value ([3]; 1% CGT in chow diet) was 55 and the Tumors per rat ([3]; 1% CGT in chow diet) was 1.0. For the same compound, the Rats with tumors ([3]; 1% CGT in chow diet) was 11, the “Total No. tumors” value ([3]; 1% CGT in chow diet) was 20 and the “Tumor Incidence” value ([3]; 2% CGT in chow diet) was 55. The Tumors per rat ([3]; 2% CGT in chow diet) was 1.0, the Rats with tumors ([3]; 2% CGT in chow diet) was 11 and the “Total No. tumors” value ([3]; 2% CGT in chow diet) was 20. The “Tumor Incidence” value ([3]; 4% CGT in chow diet) was 35, the Tumors per rat ([3]; 4% CGT in chow diet) was 0.5 and the Rats with tumors ([3]; 4% CGT in chow diet) was 7. For the same compound, the “Total No. tumors” value ([3]; 4% CGT in chow diet) was 10 and the “inhibition of β-glucuronidase” value (β-glucuronidase; urine, intestine and liver) was “effective as inhibitors of β-glucuronidase”.
In the case of `O=C(O)[C@@H](O)[C@H]1OC(=O)[C@H](O)[C@H]1O` [GL, D-glucaro-1,4-lactone], the “inhibition of β-glucuronidase” value (β-glucuronidase; urine and intestine) is listed as “potent inhibitor of β-glucuronidase”.
For `CC1=C(/C=C/C(C)=C/C=C/C(C)=C/C(=O)Nc2ccc(O)cc2)C(C)(C)CCC1` [HPR, N-(4-hydroxyphenyl)retinamide], the “inhibition of tumor incidence” value ([3]; 0.75 mmol/kg HPR alone) was 15%, the inhibition of tumors/rat ([3]; 0.75 mmol/kg HPR alone) was 9% and the Rats with tumors ([3]; 0.75 mmol/kg diet HPR) was 12. For the same compound, the “regression of the DMBA-induced mammary tumors, following growth arrest” value [4] was 30%, the “inhibition of tumor growth” value [5] was 50% and the “level of cellular cAMP and of histone kinases” value [6] was “elevate the level of cellular cAMP (cyclic AMP) and of histone kinases”.
For `O=C(O)[C@@H](O)[C@@H](O)[C@H](O)[C@@H](O)C(=O)[O-].[K+]` [potassium hydrogen glucarate], the “release of D-glucaro-1,4-lactone” value ([1]; fed) is listed as “slowly release D-glucaro-1,4-lactone (GL)” and the “inhibition of β-glucuronidase” value (β-glucuronidase; urine, intestine and liver) is listed as “effective as inhibitors of β-glucuronidase”.
